Test results taken from patent publication US11459295B2, “2-beta-naphthyl-acetic acid analogs as AKR1C3 inhibitors and methods of using same” (THE TRUSTEES OF THE UNIVERSITY OF PENNSYLVANIA, priority 2015, dated 2022).
Several values for one entry are separate records, joined by “and”; a condition that tells them apart may be missing. Equal entries are not always repeated.

Columns and labels:
[1] = target: T1, AKR1C3 (Homo sapiens (Human), UniProt P42330); assay: S-tetralol oxidation assay, AKR1C3; type: biochemical
Protocol: Enzymes were purified to constant specific activity and their purity established by SDS-PAGE. All AKR enzymes were stored at −80° C. in 20 mM potassium phosphate buffer pH 7.0 containing 30% glycerol, 1 mM EDTA, and 1 mM β-mercaptoethanol. […] The specific activities of AKR1C enzymes were determined by measuring the formation of NADH at 340 nm using a Beckman DU640 spectrophotometer. […] The mixtures were incubated at 25° C. (AKR1C1 and 1C4) or 37° C. (AKR1C2 and 1C3) for 3 min, followed by adding a serial dilution of enzyme solution to a final volume of 1 mL to initiate the reaction. After continuously monitoring for 5 min, the increase in UV absorption using different concentrations of enzyme were recorded to calculate the initial velocity of substrate oxidation and determine enzyme-specific activity.
Reagents were mixed and incubated at 37° C. for 10 min followed by adding AKR1C enzymes to initiate the reaction. […] To determine the pattern of inhibition, five fixed concentrations of S-tetralol were used and four different concentrations of inhibitor were used and a gobal fit of the equations for COMP, NONCOMP and UNCOMP to the data was applied using Grafit.

[2] = target: COX-2 (Mus musculus, UniProt Q05769); assay: COX-2 inhibition; type: biochemical
[3] = target: T2, AKR1C2 (Homo sapiens (Human), UniProt P52895); assay: S-tetralol oxidation assay, AKR1C2; type: biochemical; settings: NADP+ dependent oxidation of S-tetralol, S-tetralol at Km; Table 1
Protocol: Enzyme Purification: Homogenous recombinant enzymes AKR1C1-4 were prepared and purified (Burczynski, et al., 1998, Biochemistry 37:6781-6790). Enzymes were purified to constant specific activity and their purity established by SDS-PAGE. All AKR enzymes were stored at −80° C. in 20 mM potassium phosphate buffer pH 7.0 containing 30% glycerol, 1 mM EDTA, and 1 mM β-mercaptoethanol. Under standard assay conditions, the specific activity of AKR1C1 for the NAD^+ dependent oxidation of 1-acenaphthenol (Sigma) was 2.0 μmol min^−1 mg^−1. The specific activities of AKR1C2 and AKR1C3 for the NAD^+ dependent oxidation of S-tetralol (Sigma) were 1.5 and 2.0 μmol min^−1 mg^−1, respectively, and the specific activity of AKR1C4 for the NAD^+ dependent oxidation of androsterone (Steraloids) was 0.3 μmol min^−1 mg^−1. The specific activities of AKR1C enzymes were determined by measuring the formation of NADH at 340 nm using a Beckman DU640 spectrophotometer. A typical assay solution contained 100 mM potassium phosphate pH 7.0, 2.3 mM NAD^+, 200 μM 1-acenaphthenol for AKR1C1, 3.0 mM Stetralol for AKR1C2 and 1C3, and 75 μM androsterone for AKR1C4, 4% acetonitrile (v/v). The mixtures were incubated at 25° C. (AKR1C1 and 1C4) or 37° C. (AKR1C2 and 1C3) for 3 min, followed by adding a serial dilution of enzyme solution to a final volume of 1 mL to initiate the reaction. After continuously monitoring for 5 min, the increase in UV absorption using different concentrations of enzyme were recorded to calculate the initial velocity of substrate oxidation and determine enzyme-specific activity.
the inhibitory potency of the individual compounds against the AKR1C isoforms was determined by monitoring the NADP^+ dependent oxidation of S-tetralol catalyzed by the AKR1C enzymes using substrate concentrations at their Km values in the presence and absence of varying concentration of the inhibitors (Adeniji, et al., 2012, J Med Chem 55:2311-2323). Reaction systems (200 μL) contained 100 mM potassium phosphate buffer (pH 7.0), 4% DMSO, 200 μM NADP^+, a serial dilution of compounds, S-tetralol, and AKR1C enzymes. […] The concentration of AKR1C1, 1C2, 1C3, and 1C4 was 111, 86, 95, and 552 nM, respectively. Reagents were mixed and incubated at 37° C. for 10 min followed by adding AKR1C enzymes to initiate the reaction. […] To determine the pattern of inhibition, five fixed concentrations of S-tetralol were used and four different concentrations of inhibitor were used and a gobal fit of the equations for COMP, NONCOMP and UNCOMP to the data was applied using Grafit.

[4] = test system: LNCaP-AKR1C3 cells; assay: Radiometric assay of androgen metabolism; type: cell-based; settings: 100 nM Δ4-AD, 30 μM compound, 48 h
Protocol: LNCaP-AKR1C3 cells seeded at a density of 1.5×10^6 cells were plated in 6 well plates in CSS media. The cells were allowed to incubate for 24 h, after which the media was aspirated and fresh CSS media with 7.5 nM (1.26 μCi) of [^3H] Δ^4-AD and 92.5 nM of cold Δ^4-AD (to obtain a final concentration of 100 nM) was added in the presence and absence of 30 μM of compound 8a in each well. The cells were incubated for 48 h, after which time the media was collected for analysis (Byrns, et al., 2012, J. Steroid. Biochem. & Mol. Biol. 130:7-15). The media was extracted twice with cold ethyl acetate. In order to determine radioactivity of each phase, a portion of each fraction was added to Ultima Gold (Perkin Elmer Life Sciences) scintillation fluid and analyzed on a TriCarb 2100 (Packard Instruments, Perkin Elmer Life Sciences), all CPM counts were blank-adjusted and reported as corrected cpm. The aqueous phases were acidified to pH 6.5 with acetic acid and subjected to treatment with 400 U of E. coli β-glucuronidase at 37° C. for 24 h. The de-conjugated androgens were re-extracted as described elsewhere herein, dried in vacuum and re-dissolved in 100 μL ethyl acetate for separation on the multi-channel LK6D Silica TLC plates. Plates were developed using dichloromethane/ethyl acetate (80:20 v/v) and scanned on the BioScan 200 plate reader.

[5] = target: T2, AKR1C2; assay: AKR1C2 catalyzed NADPH dependent reduction of 5α-DHT; type: biochemical; settings: 5α-DHT reduction, <100 μM concentrations
Protocol: Compounds were tested for their ability to inhibit the AKR1C3 catalyzed, reduction of [^3H]-Δ^4-AD and the AKR1C2 catalyzed reduction of [^3H]-5α-DHT. Compounds were incubated with purified recombinant enzyme and radiolabeled steroid in 100 mM phosphate buffer pH7.0 and 4% DMSO at 37° C. The reaction was initiated by the addition of 1 mM NADPH, aliquots were removed over time and subsequently quenched by the addition of ice cold ethyl acetate. The ethyl acetate fraction was extracted and dried in vacuum. Steroid reference standards and extracts were dissolved in 50 μl ethyl acetate and applied to LK6D Silica TLC plates (Whatman Inc., Clifton, N.J.). TLC plates were developed using a dichloromethane/ethyl acetate (80:20 v/v) solution and were scanned with a Bioscan System 200 plate reader (Washington, D.C.). The percentage of radioactivity in the product peak was calculated assuming that the combined radioactivity in the substrate and product peaks was 100%. Initial velocities were computed by converting the percentage of radioactivity in the product peak by the specific radioactivity of the starting material to generate pmoles/min.

[6] = test system: LNCaP-AKR1C3 cells; assay: Western blot of Δ4-AD induced PSA expression; type: cell-based; settings: 100 nM Δ4-AD, 30 μM compound
Protocol: LNCaP cells stably expressing AKR1C3 (LNCaP-AKR1C3 cells) (Byrns, et al., 2012, J. Steroid. Biochem. & Mol. Biol. 130:7-15) seeded at a density of 1.5×10^6 cells were plated in 6 cm dishes containing phenol red free RPMI-1640 media supplemented with 5% CDFBS, 1% Pen/Strep and 2 mM L-Glutamine (CSS media). The cells were incubated for 24 h after which media was aspirated and fresh CSS media containing 100 nM Δ^4-AD plus and minus inhibitors. The cells were incubated for 24 h after which they were harvested in RIPA lysis buffer supplemented with protease inhibitors at 4° C. Lysate protein concentration was determined by the Bradford assay using the BIORAD protein dye (Bio-Rad). The samples were subjected to electrophoresis on a 12% SDS-PAGE gel that was subsequently transferred to a nitrocellulose membrane. The membrane was probed with the appropriate antibodies as follows; anti β-tubulin (Millipore, #05-661) anti-PSA (Meridian Life Science, Inc., #K92110R). Blots were imaged using the ECL reagent (Pierce) and GelDoc XR+ System and Image Lab software (Bio-Rad).

[7] = target: T1, AKR1C3; assay: AKR1C3 catalyzed reduction of Δ4-AD; type: biochemical; settings: E.NADPH.I complex; read-out: Ki, competitive inhibition of AKR1C3 catalyzed reduction of Δ4-AD
Description: The ethyl acetate fraction was extracted and dried in vacuum.

[8] = target: COX-1 (Ovis aries (Sheep), UniProt P05979); assay: COX-1 assay (TMPD oxidation); type: biochemical, ram
Protocol: The purity of the enzyme was assessed by SDS-PAGE. […] Reagents were mixed and incubated at 25° C. for 5 min followed by adding a mixture of TMPD and arachidonic acid to initiate the reaction. Specific activity was determined based on the initial velocity of the reduction of PGG2 formed in the reaction.
The effect of the compounds on COX-1 activity was determined by a continuous colorimetric assay that monitored the oxidation of N, N, N, N-tetramethyl-1,4-phenylenediamine (TMPD) when coupled to the COX catalyzed formation of PGH2 from PGG2 using arachidonic acid as substrate. […] Reagents were mixed and incubated at 25° C. for 5 min followed by adding a mixture of TMPD and arachidonic acid to initiate the reaction.

[9] = target: AKR1C1 (Homo sapiens (Human), UniProt Q04828); assay: S-tetralol oxidation assay, AKR1C1; type: biochemical
[10] = NADP+ dependent oxidation of S-tetralol, S-tetralol at Km, Table 1
[11] = highest inhibitor concentration (100 μM) tested

Sequence of COX-1 (P05979 25-600): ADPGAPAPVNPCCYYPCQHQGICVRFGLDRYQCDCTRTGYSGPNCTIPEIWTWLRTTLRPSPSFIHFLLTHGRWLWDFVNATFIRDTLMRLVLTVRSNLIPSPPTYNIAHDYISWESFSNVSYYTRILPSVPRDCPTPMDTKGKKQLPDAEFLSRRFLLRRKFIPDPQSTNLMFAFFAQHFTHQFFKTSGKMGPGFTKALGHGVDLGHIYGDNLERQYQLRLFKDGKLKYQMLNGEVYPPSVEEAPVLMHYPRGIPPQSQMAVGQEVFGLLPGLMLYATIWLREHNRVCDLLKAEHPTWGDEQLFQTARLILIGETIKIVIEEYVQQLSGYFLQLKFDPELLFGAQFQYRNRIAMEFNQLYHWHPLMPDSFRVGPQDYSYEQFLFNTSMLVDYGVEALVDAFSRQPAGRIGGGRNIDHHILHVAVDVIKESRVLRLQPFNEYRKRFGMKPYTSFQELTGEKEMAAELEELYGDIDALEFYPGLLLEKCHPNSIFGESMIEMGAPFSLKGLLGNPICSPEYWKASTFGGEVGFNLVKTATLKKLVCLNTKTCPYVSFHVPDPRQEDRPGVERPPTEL
T2 sequence (P52895 whole entry): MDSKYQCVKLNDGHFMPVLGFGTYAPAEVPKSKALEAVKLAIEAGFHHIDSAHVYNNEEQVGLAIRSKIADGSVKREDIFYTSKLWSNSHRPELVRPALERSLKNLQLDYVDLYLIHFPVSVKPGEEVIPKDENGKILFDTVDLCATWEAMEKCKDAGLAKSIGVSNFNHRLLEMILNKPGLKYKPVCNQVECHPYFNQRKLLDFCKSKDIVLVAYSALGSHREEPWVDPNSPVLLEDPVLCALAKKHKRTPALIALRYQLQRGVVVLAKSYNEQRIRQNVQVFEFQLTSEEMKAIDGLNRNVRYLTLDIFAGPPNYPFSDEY
T1 sequence (P42330 whole entry): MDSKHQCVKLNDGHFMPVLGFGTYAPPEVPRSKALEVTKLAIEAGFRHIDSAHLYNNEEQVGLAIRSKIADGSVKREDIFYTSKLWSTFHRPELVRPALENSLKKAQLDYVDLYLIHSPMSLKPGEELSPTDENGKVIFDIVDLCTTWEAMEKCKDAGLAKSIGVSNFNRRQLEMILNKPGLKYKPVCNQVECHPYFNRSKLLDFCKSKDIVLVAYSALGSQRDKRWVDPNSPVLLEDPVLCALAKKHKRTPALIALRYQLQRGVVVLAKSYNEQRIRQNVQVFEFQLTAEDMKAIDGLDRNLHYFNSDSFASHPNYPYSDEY
Sequence of COX-2 (Q05769 18-604 limits assumed): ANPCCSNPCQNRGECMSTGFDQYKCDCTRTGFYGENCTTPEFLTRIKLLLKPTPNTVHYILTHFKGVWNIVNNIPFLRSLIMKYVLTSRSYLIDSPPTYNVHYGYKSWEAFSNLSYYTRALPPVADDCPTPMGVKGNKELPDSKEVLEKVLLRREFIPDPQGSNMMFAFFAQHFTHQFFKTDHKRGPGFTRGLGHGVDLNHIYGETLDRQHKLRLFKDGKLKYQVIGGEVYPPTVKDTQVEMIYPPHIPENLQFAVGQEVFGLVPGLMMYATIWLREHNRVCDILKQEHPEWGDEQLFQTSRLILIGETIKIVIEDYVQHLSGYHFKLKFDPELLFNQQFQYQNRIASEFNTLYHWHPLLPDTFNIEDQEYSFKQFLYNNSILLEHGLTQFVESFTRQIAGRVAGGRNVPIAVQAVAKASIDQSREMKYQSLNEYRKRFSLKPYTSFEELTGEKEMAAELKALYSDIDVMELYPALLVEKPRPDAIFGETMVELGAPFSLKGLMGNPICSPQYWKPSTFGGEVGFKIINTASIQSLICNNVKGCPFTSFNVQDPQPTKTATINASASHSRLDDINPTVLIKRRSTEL
Sequence of AKR1C1 (Q04828 whole entry, looked up): as the sequence (P52895 whole entry) above, with V38T, H47R, V54L, S87C, M151V, H170R, L172Q counted along it

Row | SMILES | IC50 [3] | IC50 [1, 10] [nM] | also measured
1 | CCC(C(=O)O)c1ccc2cc(OC)ccc2c1 (racemic) [LM5750(±) 8, 2-(6-Methoxynaphthalen-2-yl)butanoic Acid] | 7600 ± 950 nM |  | IC50 ([1]; S-tetralol oxidation): 120 nM; inhibitory activity on COX-2 ([2]; maximum concentration of arachidonic acid tested as substrate (10 μM)): no inhibitory activity
2 | CCc1ccc2cc(C(C)C(=O)O)ccc2c1 (racemic) [LM5751(±) 2, 2-(6-Ethylnaphthalen-2-yl)propanoic Acid] | 1900 ± 110 nM | 120 ± 7.5 | 
3 | CSc1ccc2cc(C(C)C(=O)O)ccc2c1 (racemic) [LM5752(±) 4, 2-(6-(Methylthio)naphthalen-2-yl)propanoic Acid] | 1500 ± 140 nM |  | IC50 ([1]; S-tetralol oxidation): 60 nM; increase in the inhibitory potency for AKR1C3 ([1]; over naproxen): 3 fold
4 | CCOc1ccc2cc(C(C)C(=O)O)ccc2c1 (racemic) [LM5753(±) 3, 2-(6-Ethoxynaphthalen-2-yl)propanoic Acid] | 2400 ± 240 nM | 100 ± 7.6 | 
5 | CC(C(=O)O)c1ccc2cc([S+](C)[O-])ccc2c1 (racemic) [LM5754(±) 5, 2-(6-(Methylsulfinyl)naphthalen-2-yl)propanoic Acid] | 6300 ± 350 nM |  | 
6 | CC(C(=O)O)c1ccc2cc(S(C)(=O)=O)ccc2c1 (racemic) [LM5754(±) 6, 2-(6-(Methylsulfonyl)naphthalen-2-yl)propanoic Acid] | 3000 ± 140 nM |  | 
7 | CCC(C(=O)NS(C)(=O)=O)c1ccc2cc(OC)ccc2c1 (racemic) [LM5885 (±) 7, 2-(6-Methoxynaphthalen-2-yl)-N-(methylsulfonyl)butanamide] | 34000 nM |  | 
8 | CSc1ccc2cc([C@@H](C)C(=O)O)ccc2c1 [(R)-4a, 2(R)-(6-(methylthio)naphthalen-2-yl)propanoic acid] | 4350 ± 610 nM | 50 ± 1.5 | 
9 | COc1ccc2cc(CC(=O)O)ccc2c1 [DesmethylNaproxen 10, 2-(6-methoxynaphthalen-2-yl)acetic acid] | 19000 ± 3700 nM | 650 ± 110 | 
10 | COc1ccc2cc(C(C)(C)C(=O)O)ccc2c1 [DimethylNaproxen 9, 2-(6-methoxynaphthalen-2-yl)-2-methylpropanoic acid] | 1320 nM | 270 | Ratio IC50 value (AKR1C2/AKR1C3) ([1]; selectivity for AKR1C3 over AKR1C2, Table 1): 5
11 | CC[C@@H](C(=O)O)c1ccc2cc(OC)ccc2c1 [LM5750B 8a, 2(R)-(6-methoxynaphthalen-2-yl)butanoic acid] | 46400 nM and 48100 nM | 110 ± 10 | production of 3H-testosterone glucuronide [4]: significantly inhibited; inhibition of AKR1C2 [5]: did not display any significant inhibition; Δ4-AD mediated increase in PSA expression [6]: inhibited; Ki ([1]; E.NADP+.I complex, read-out: Ki, competitive inhibition of AKR1C3 catalyzed oxidation of S-tetralol): 31 nM; preference for the E.NADP+ complex ([1]; over E.NADPH complex): 20 fold; pattern of AKR1C3 inhibition ([1]; oxidation of S-tetralol): competitively inhibited; Ki [7]: 750 nM; IC50 ([8]; arachidonic acid as substrate): > 100000 nM; inhibition at 100 µM [8, 11]: < 20%; IC50 [9]: 50000 nM
12 | COc1ccc2cc([C@@H](C)C(=O)O)ccc2c1 [R-Naproxen (1a), reference compound] | 2750 nM |  | IC50 ([2]; Table 2): > 25000 nM; inhibition of COX-1 activity [8, 11]: less than 20%
13 | COc1ccc2cc([C@H](C)C(=O)O)ccc2c1 [S-Naproxen (1), (S)-2-(6-methoxynaphthalen-2-yl)propanoic acid, reference compound] | 1260 ± 150 nM |  | 
